Assay results from patent US8501911B2, “Methods of reducing inflammation and mucus hypersecretion” (Biomarck Pharmaceuticals, Ltd, priority 1999, dated 2013).
Entries after “also recorded” stand apart in the source; their conditions may differ. Residues, ends and D or L forms follow the SMILES beside them. *: point of attachment. Myristoyl = CCCCCCCCCCCCCC(=O)*

Key:
[1] = tested on: MARCKS; test: MARCKS phosphorylation in NHBE cells (radiolabeled immunoprecipitation assay); type: cell-based, human
Experimental: NHBE cells were labeled with [^32 P]orthophosphate and then exposed to the reagents: (a) Rp-8-Br-PET-cGMP (100 μM); (b) okadaic acid (500 nM); (c) 8-Br-cGMP (1 μM); and (d) PMA (100 nM). MARCKS phosphorylation in response to the treatments was evaluated by immunoprecipitation assay.
To reveal molecular events by which MARCKS links kinase activation to mucin secretion, phosphorylation of MARCKS in response to PKC/PKG activation was investigated in depth, and results are presented as Results-I-4A. […] Once phosphorylated, MARCKS was translocated from the plasma membrane to the cytoplasm. More specifically, the activation of PKC results in MARCKS phosphorylation in NHBE cells. Cells were labeled with [^32 P]orthophosphate for 2 h and then exposed to the stimulatory and/or inhibitory reagents (see below). MARCKS phosphorylation in response to the treatments was evaluated by immunoprecipitation with the following specifics, designated Results-I-4A:
[^32P]phosphate, cells were preincubated for 2 h in phosphate-free Dulbecco's modified Eagle's medium containing 0.2% bovine serum albumin and then labeled with 0.1 mCi/ml [^32 P]orthophosphate (9000 Ci/mmol, PerkinElmer Life Sciences) for 2 h. For labeling with [^3H]myristic acid or ^3H-amino acids, cells were incubated overnight in medium containing 50 μCi/ml [^3H]myristic acid (49 Ci/mmol, PerkinElmer Life Sciences) or 0.2 mCi/ml [^3H]leucine (159 Ci/mmol, PerkinElmer Life Sciences) plus 0.4 mCi/ml [^3H]proline (100 Ci/mmol, PerkinElmer Life Sciences). Following labeling, cells were exposed to stimulatory reagents for 5 min. When an inhibitor was used, cells were preincubated with the inhibitor for 15 min prior to stimulation. At the end of the treatments, cells were lysed in a buffer containing 50 mM Tris-HCl (pH 7.5), 150 mM NaCl, 1 mM EDTA, 10% glycerol, 1% Nonidet P-40, 1 mM phenylmethylsulfonyl fluoride, 1 mM benzamidine, 10 μg/ml pepstatin A, and 10 μg/ml leupeptin. Trichloroacetic acid precipitation and scintillation counting may determine the radiolabeling efficiency in each culture. Immunoprecipitation of MARCKS protein was carried out according to the method of Spizz and Blackshear using cell lysates containing equal counts/min. Spizz et al., J. Biol. Chem. 271, 553-562 (1996). Precipitated proteins were resolved by 8% SDS-polyacrylamide gel electrophoresis and visualized by autoradiography. Anti-human MARCKS antibody (2F12) and nonimmune control antibody (6F6) were used in this assay.
Phosphorylation of MARCKS by PMA was attenuated by Calphostin C (500 nM). NHBE cells also contained substantial amounts of cGMP-dependent protein kinase type 1α (PKG-1α) activity, which was localized to the cytosolic fraction. […] In addition, the phosphorylation of MARCKS induced by PMA was reversed by incubation with 8-Br-cGMP (10 μM).

[2] = tested on: NK-92 cells; test: Inhibition of release of granzyme from NK-92 cells; type: cell-based, human; conditions: for % Inhibition Granzyme: at 50 μM of test peptide
Experimental: Measurement of NK cell granzyme secretion: Granzyme secreted from NK-92 cells was assayed by measuring hydrolysis of Nα-benzyloxycarbonyl-L-lysine thiobenzyl ester (BLT, EMD Bioscience, Inc.) essentially as described previously (Takayama H. Trenn G, Sitkovsky M V. A novel cytotoxic T lymphocyte activation assay. J. Immunol. Methods 104:183-190, 1987). An aliquot of 50 μl of supernatant was transferred to a 96-well plate, and 150 μl of 0.2 mM solution of BLT and 0.22 mM DTNB (Sigma-Aldrich Co.) in phosphate-buffered saline (PBS, pH 7.2) was added to the supernatant. Absorbance at 410 nm was measured after incubation for 30 min at room temperature. Results were expressed as percentage of total cellular enzyme content, using the amount obtained in the same number of triton X-100-lysed cells.
Because standard granzyme from NK-92 cells was not available to use for quantification, we measured both released and intracellular (from lysed cells) levels of granzyme, and expressed the released granzyme as a percentage of total (intracellular and released) for each. To measure intracellular granzyme from NK-92 cells, appropriate aliquots of 0.1% triton X-100-lysed cells were taken for quantification of the enzyme as described above. All data are expressed as percentage of control to minimize variability between cultures.

[3] = inhibitor 500 nM + 100 nM PMA + 1 μM 8-Br-cGMP

Nc1nc2c(nc(Br)n2[C@@H]2O[C@@H]3COP(=O)(O)O[C@H]3[C@H]2O)c(=O)[nH]1 [8-Br-cGMP]
Effect on PMA-induced phosphorylation of MARCKS ([1]; 8-Br-cGMP 10 μM (Example 6)): reversed | MARCKS phosphorylation (band in immunoprecipitation assay) ([1]; reagent 1 μM alone): faint band; also recorded: no band; also recorded: only a trace amount

CCCCCCCCCCCCCC(=O)NCC(=O)N[C@@H](C)C(=O)N[C@@H](CCC(N)=O)C(=O)N[C@@H](Cc1ccccc1)C(=O)N[C@@H](CO)C(=O)N[C@@H](CCCCN)C(=O)N[C@H](C(=O)N[C@@H](C)C(=O)N[C@@H](C)C(=O)N[C@@H](CCCCN)C(=O)NCC(=O)N[C@@H](CCC(=O)O)C(=O)N[C@@H](C)C(=O)N[C@@H](C)C(=O)N[C@@H](C)C(=O)N[C@@H](CCC(=O)O)C(=O)N[C@@H](CCCNC(=N)N)C(=O)N1CCC[C@H]1C(=O)NCC(=O)N[C@@H](CCC(=O)O)C(=O)N[C@@H](C)C(=O)N[C@@H](C)C(=O)N[C@H](C(=O)N[C@@H](C)C(=O)O)C(C)C)[C@@H](C)O [MANS peptide] (Myristoyl-GAQFSKTAAKGEAAAERPGEAAVA-OH; C-terminus assumed)
Reduction in granzyme secretion relative to the PMA control reference ([2]; 100 μM peptide, 100 nM PMA 2 hour): about 60% | % Inhibition Granzyme [2]: 76.0%

CCCCCCCCCCCCCC(=O)O[C@@H]1[C@@H](C)[C@@]2(O)[C@@H](C=C(CO)C[C@]3(O)C(=O)C(C)=C[C@@H]23)[C@@H]2C(C)(C)[C@]12OC(C)=O [PMA, phorbol 12-myristate 13-acetate]
Granzyme secretion relative to control as 100% ([2]; 100 nM PMA, 2 hour incubation): about 220% | Increase in MARCKS phosphorylation ([1]; PMA 100 nM): 3-4 fold | MARCKS phosphorylation (band in immunoprecipitation assay) ([1]; reagent 100 nM alone): dark band; also recorded: very dark band; also recorded: showed a band; also recorded: strong band; also recorded: phosphorylated

CCCCCCCCCCCCCC(=O)NCC(=O)N[C@H](C(=O)N[C@@H](C)C(=O)N1CCC[C@H]1C(=O)N[C@@H](C)C(=O)N[C@@H](C)C(=O)N[C@@H](CCC(=O)O)C(=O)NCC(=O)N[C@@H](C)C(=O)NCC(=O)N[C@@H](C)C(=O)N[C@@H](CCC(=O)O)C(=O)N[C@H](C(=O)N[C@@H](CCCCN)C(=O)N[C@@H](CCCNC(=N)N)C(=O)N[C@@H](C)C(=O)N[C@@H](CO)C(=O)N[C@@H](C)C(=O)N[C@@H](CCC(=O)O)C(=O)N[C@@H](C)C(=O)N[C@@H](CCCCN)C(=O)N[C@@H](CCC(N)=O)C(=O)N[C@@H](C)C(=O)N[C@@H](Cc1ccccc1)C(=O)O)C(C)C)[C@@H](C)O [RNS peptide, reference compound] (Myristoyl-GTAPAAEGAGAEVKRASAEAKQAF-OH; C-terminus assumed)
Effect on PMA-enhanced granzyme secretion ([2]; any of the time points or concentrations tested): did not affect | % Inhibition Granzyme [2]: 29.5%

C[C@@](O)(/C=C/[C@H]1CC=CC(=O)O1)[C@@H](C[C@@H](O)\C=C/C=C\C=C\CO)OP(=O)(O)O [fostriecin]
Effect on PKG-induced MARCKS dephosphorylation ([1]; 1-500 nM, with PMA 100 nM + 8-Br-cGMP 1 μM): inhibited PKG-induced MARCKS dephosphorylation in a concentration-dependent manner | MARCKS phosphorylation (band in immunoprecipitation assay) [1, 3]: strong band | MARCKS phosphorylation (band in immunoprecipitation assay) ([1]; inhibitor alone, concentration not stated (I-5C lane 9)): only a trace amount

C=C1[C@@H](O)[C@@H]2O[C@]3(CC[C@H](/C=C/[C@@H](C)[C@@H]4CC(C)=C[C@@]5(O[C@H](C[C@@](C)(O)C(=O)O)CC[C@H]5O)O4)O3)CC[C@H]2O[C@@H]1[C@@H](O)C[C@H](C)[C@H]1O[C@@]2(CCCCO2)CC[C@H]1C [okadaic acid]
Effect on reversal of MARCKS phosphorylation by 8-Br-cGMP (10 μM) ([1]; 500 nM (Example 6)): inhibited this effect | MARCKS phosphorylation (band in immunoprecipitation assay) ([1]; inhibitor 500 nM + 100 nM PMA): dark band | MARCKS phosphorylation (band in immunoprecipitation assay) [1, 3]: dark band | MARCKS phosphorylation (band in immunoprecipitation assay) ([1]; inhibitor 500 nM + 100 nM PMA + 1 μM 8-Br-cGMP, listed as Okadaic acid): showed a band | MARCKS phosphorylation (band in immunoprecipitation assay) ([1]; inhibitor 500 nM + 100 nM PMA, listed as Okadaic acid): showed a band | MARCKS phosphorylation (band in immunoprecipitation assay) ([1]; inhibitor 500 nM + 1 μM 8-Br-cGMP): medium dark band | MARCKS phosphorylation (band in immunoprecipitation assay) ([1]; inhibitor 500 nM + 1 μM 8-Br-cGMP, listed as Okadaic acid): faint band | MARCKS phosphorylation (band in immunoprecipitation assay) ([1]; inhibitor 500 nM alone): faint band
